Experimental data as given in US10695330B2, “Methods of treatment” (Global Blood Therapeutics, Inc., priority 2015, dated 2020).

Tests used:
[1] = tested on: healthy mice subjected to extreme hypoxia; assay: Tolerance to hypoxia mouse model: systemic parameters, tissue hypoxia, survival; type: in vivo; conditions: for survival: after 1.5 hours of exposure to 5% O2 hypoxia
Experimental: Male, C57BL mice were fitted with a dorsal skinfold window chamber for direct visualization of an intact microvascular bed (Yalcin & Cabrales 2012). After the window chamber was implanted, the animals were left to recover for at least 2 days, before undergoing surgery a second time for arterial (carotid) catheter implantation (PESO tubing). After two day of recovery, mice were dosed orally with Compound 1 (70 or 140 mg/kg) or vehicle only and Hb O2 affinity was determined by hemoximetry. Two hours post dose, conscious mice were placed in a restraining tube with a longitudinal slit from which the protruding window chamber provided a microscopic stage for observation. In this setup, gas flow rate (0.2 L/min) into the tube is diffused by a cotton filter barrier. Baseline measurements for normoxia (21% O2) were completed within an hour of restraining mice. The animals were then exposed to stepwise hypoxia by decreasing the O2 concentration to 15, 10 and 5%. Animals were kept at each hypoxic level for 30 min. Mice were allowed 15 min of acclimatization at each new hypoxic level before measurements were taken. During hypoxia, changes in systemic and microvascular hemodynamics, blood gases, blood lactate, tissue partial pressure of O2 (PO2), tissue hypoxia and tolerance to hypoxia were evaluated. At each time point, mice with adequate systolic blood pressure (BP) were counted as survived and mice with severe hypotension (BP≤60 mmHg) were counted as non-survived and were euthanized.
MAP (mean arterial pressure) and heart rate (HR) were recorded continuously from Carotid catheter. Hct was measured from centrifuged arterial blood samples taken in heparinized capillary tubes. Arterial blood was collected in heparinized glass capillaries (50 μL) and immediately analyzed for PO2, PCO2, base excess, and pH. Arterial Hb saturations were measured using a CO-Oximeter.
High resolution non-invasive microvascular PO2 measurements were made using phosphorescence quenching microscopy (PQM). Tissue PO2 was measured in regions in between functional capillaries (Yalcin & Cabrales 2012). Hb O2 saturations in the microcirculation are calculated using the O2 equilibrium curves measured.
Tissue hypoxia was studied via immunohistochemistry staining for pimonidazole bound to hypoxic zones in vital tissues. Mice received a bolus intraperitoneal injection (IP) injection of the hypoxic marker Hypoxyprobe-1 (pimonidazole 40 mg/kg) and 5 mg/kg Hoechst 33342 diluted in PBS (total volume, 100 μL). At the end of the study, mice were euthanized and tissues extracted for histology. Sections are stained with monoclonal antibody against pimonidazole. Images for pimonidazole antibody-stained areas and Hoechst were recorded. Results are reported as the ratio of pimonidazole stained area to the total cellular area by co-localization of pimonidazole and Hoechst.

Hb = molecular target: T1, Hb (Mus musculus, UniProt P01942); assay: Bleomycin mouse model: PK/PD (blood and plasma concentrations, Hb occupancy, hemoximetry); type: in vivo; conditions: bleomycin treated mice; for calculated Hb occupancy: 4 hours after last dose
T1 construct: from tissue; host or cells: whole blood (red blood cells) of dosed C57BL / C57BL/6J mice
T1 sequence (P01942 2-142 limits assumed): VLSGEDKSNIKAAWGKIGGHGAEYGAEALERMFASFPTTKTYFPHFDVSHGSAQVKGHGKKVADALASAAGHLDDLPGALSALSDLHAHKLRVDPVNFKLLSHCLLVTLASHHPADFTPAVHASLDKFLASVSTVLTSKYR
T1 sequence (P02088 2-147 partner limits assumed): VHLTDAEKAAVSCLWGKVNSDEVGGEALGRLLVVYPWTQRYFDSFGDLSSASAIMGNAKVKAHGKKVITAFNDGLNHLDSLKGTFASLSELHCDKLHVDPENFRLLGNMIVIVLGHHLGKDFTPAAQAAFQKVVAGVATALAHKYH
Experimental: Compound 1 (formulated in dimethylacetamide: polyethylene glycol 400 (PEG400): 40% cavitron at a 1:5:4 ratio) was administered at either low dose (first day 50 mg/kg followed by 40 mg/kg daily) or high dose (first day 150 mg/kg followed by 85 mg/kg daily) via oral gavage to bleomycin treated mice once daily from day 8 to day 15. Animals in group 1 were administered vehicle via oral gavage. The dosing volume was 200 μL. The study animals were sacrificed on day 15 at 4 hours post final dose.
Samples for hemoximetry and pharmacokinetics (PK) were taken 4 hours following the last dose of the dosing regimen. BAL fluid was collected from the lungs of the animals by lavaging the lung with 1 ml Hanks balanced salt media (HBSS). Lungs were harvested from each animal and weighed. They were then inflated by ˜0.5 mL of 10% NBF and fixed in a formalin container for subsequent histopathological analysis.
Compound 1 blood and plasma concentrations were determined by LC-MS 4 hours after the last dose. Both standard and QC blood samples were pre-incubated at 37° C. for 1 hr. After incubation, all standard and QC samples were diluted with 2-fold volume of water to match with the condition of samples. Plasma standard and QC were proceeding without pre-incubation. […] The peak area of m/z 341->203 product ion (Compound 1) was measured against that of the m/z 345->159 product ion 2-hydroxy-6-((2-(1-(propan-2-yl-d7)-1H-pyrazol-5-yl)pyridin-3-yl)methoxy)benzaldehyde in positive ion mode. […]
Hemoglobin occupancy by Compound 1 was calculated by dividing the concentration of Compound 1 in RBCs by the Hb concentration in RBCs (5 mM). RBC was calculated from whole blood and plasma concentration data using the following equation: […]
Hemoximetry measurements (PD analysis) were conducted in a Hemox Analyzer (TCS Scientific Corporation, New Hope, Pa.). […] The absorbance at wavelengths that correspond to the isosbestic point (570 nm) and deoxy Hb (560 nm) was recorded as a function of the sample O2 tension (pO2). […]

In the case of `O=Cc1c(O)cccc1OC[C@@H]1CCCCN1C(=O)c1cccnc1` [Compound 1, (S)-2-hydroxy-6-((1-nicotinoylpiperidin-2-yl)methoxy)benzaldehyde], the survival ([1]; 70 mg/kg) is reported as 16%, the survival ([1]; 140 mg/kg) is reported as 83% and the “arterial blood pH” value ([1]; during 10% and 5% O2 hypoxia) is reported as “normal during hypoxia”. The “arterial blood oxygen saturation (SaO2)” value ([1]; during hypoxia, 70 or 140 mg/kg oral, vs control) was “dose-dependently increased SaO2 relative to control”, the “heart rate (HR)” value ([1]; during hypoxia, vs control) was “sustained higher” and the “mean arterial pressure (MAP)” value ([1]; during hypoxia, vs control) was “sustained higher mean BP”. The blood lactate levels ([1]; extreme hypoxia (5% O2), vs control) was “reduced lactate levels relative to control”, the “hypoxic tissues positively stained by pimonidazole” value ([1]; extreme hypoxia, vs control) was “reduced hypoxic tissues positively stained by pimonidazole relative to control” and the “arterial blood partial pressure of O2 (PaO2)” value ([1]; stepwise hypoxia, 70 or 140 mg/kg oral) was “the PaO2 was the same in Compound 1-treated and control mice”. For the same compound, the “calculated Hb occupancy” value (Hb; high dose regimen (150 then 85 mg/kg daily)) was 36.7%, the “shift in the OEC (Hb-oxygen binding affinity)” value (Hb; low and high dose) was “significant left shift in the OEC in a dose-response manner” and the “calculated Hb occupancy” value (Hb; low dose regimen (50 then 40 mg/kg daily)) was 18.0%.
